We go through 15 compounds from US10941114B2, “Small molecule lipid II inhibitors” (University Of Maryland, Baltimore, priority 2015, dated 2021).

Each structure is given as a SMILES string. Structures can show the parent of a compound that is named as a salt. Where two headings read alike, the source gives them in different places.

One may read the MIC as the lowest concentration found to suppress growth. What is called CC50 is the concentration that lowers cell viability or growth by half. As a reminder, the MRT is a mean duration of stay, worked out from the concentration-time curve.

Series [1] is described as follows: Surface Plasmon Resonance determination of Lipid II binding. The note with it: SPR; for Lipid II binding affinity: FIG. 16. As for the experimental part: Short-chain water-soluble LII containing a lipid tail of three isoprene units (3-LII) was generated and purified essentially according to methods known in the art. See Breukink et al., Lipid II is an intrinsic component of the pore induced by nisin in bacterial membranes. J. Biol. Chem. 278(22):19898-19903, 2003, the contents of which are hereby incorporated by reference. Typically, M. flavus vesicles (120 μmol lipid-Pi) were incubated together with 500 μmol UDP-GlcNAc, 500 μmol UDP-MurNAC-pentapeptide and 400 μmol farnesyl phosphate in 100 mM Tris-HCl pH 8.0, 5 mM MgCl2. The incubation period was approximately two hours at room temperature for 3-LII (3-P). The synthesis of 3-Lipid II was followed by RP-8 reversed phase TLC (Merck™) developed with 75% methanol. For purification, the membranes were removed by centrifugation at 40,000×g; the supernatant was collected and loaded on a C18 HPLC column and eluted with a linear gradient from 50 mM ammonium bicarbonate to 100% methanol in 30 minutes. Farnesyl-Lipid II (3-Lipid II) eluted at approximately 60% methanol. Its identity was confirmed by mass spectroscopy.
Surface Plasmon Resonance binding experiments were carried out on a BIAcore T100 system (BIAcore™ Inc., Piscataway, N.Y.) at 25° C. The assay buffer was 10 mM HEPES, 150 mM NaCl, 0.05% surfactant P20, pH 7.4 (+3 mM EDTA) supplemented with 10% DMSO. 3-Lipid II (50 RUs) was immobilized on CMS sensor chips using the amine-coupling chemistry recommended by the manufacturer. For initial determination of binding, compounds were introduced into the flow-cells (30.mu·1/min) in the running buffer at 10 μM. Resonance signals were corrected for nonspecific binding by subtracting the background of the control flow-cell. Binding to immobilized 3-LII on the chip surface was determined and scored “yes” in Table 5 when more than 20 Resonance Units or RUs were detected. Detection of less than 20 RUs was scored as “no”, meaning no significant binding to LII. After each analysis, the sensor chip surfaces were regenerated with 50 mM NaOH for 30 seconds at a flow rate 100 μL/min, and equilibrated with the buffer prior to next injection. For binding kinetics studies, binding isotherms were analyzed with manufacturer-supplied software for BIAcore™ T100.

For a further series, the system named is Staphylococcus aureus. Put plainly: Antibacterial activity assay (MIC, broth dilution). The format is cell-based. Also noted: S. aureus Killing / Bacterial Killing S. aureus: unit not given here. The note with it: for Bacterial Killing S. aureus: determined as in Example 1E (MIC); for MIC: Staphylococcus aureus, Table 16, CLSI M07-A10 dilution method, read-out: MIC S. aureus; for MIC SA: S. aureus USA300 (MRSA), average of two replicates. In general terms: In broth dilution the organism is exposed to a series of concentrations in liquid medium.

The subject of a further series is Enterococcus faecium. Nature of the series: Antibacterial activity assay (MIC, broth dilution). The note with it: for Bacterial Killing E. faecium: determined as in Example 1E (MIC); for MIC: Enterococcus faecium, Table 16, CLSI M07-A10 dilution method, read-out: MIC E. faecium; for MIC EF: average of two replicates. Also on record: Bacterial Killing E. faecium: unit: ug/mL. In kind it is cell-based. As for the experimental part:
(§1) Determination of the Minimal Inhibitory Concentrations (MIC) by dilution was carried out by broth dilution according to CLSI standards. See CLSI, Methods for Dilution Antimicrobial Susceptibility Tests for Bacteria That Grow Aerobically; Approved Standard—Eighth Edition. 2009, the contents of which are hereby incorporated by reference. Briefly, the minimum inhibitory concentration MIC, is the lowest concentration of a compound that prevents visible growth of a bacterium, in other words at which it has bacteriostatic activity.
For these tests, cation-adjusted Mueller Hinton broth, containing 10% brain-heart infusion (BHI) was used. Concentrations (MIC) are given in μg/mL. The compound was […].
(§2) Compounds were tested for MIC by methods known in the art and described in CLSI, Methods for Dilution Antimicrobial Susceptibility Tests for Bacteria That Grow Aerobically; Approved Standard—Tenth Edition. CLSI document M07-A10. Wayne, Pa.: Clinical and Laboratory Standards Institute, 2015, which is hereby incorporated by reference for these methods.
(§3) Selected compounds also were tested by broth microdilution methods known in the art and described in CLSI, Methods for Dilution Antimicrobial Susceptibility Tests for Bacteria That Grow Aerobically; Approved Standard—Tenth Edition. CLSI document M07-A10. Wayne, Pa.: Clinical and Laboratory Standards Institute, 2015, which is hereby incorporated by reference. Structures of selected compounds in the tables are listed below.

The next series has as its system Escherichia coli. Nature of the series: Antibacterial activity assay (MIC, broth dilution). In kind it is cell-based. The note with it: determined as in Example 1E (MIC).
The subject of a further series is Acinetobacter baumannii. Put plainly: Antibacterial activity assay (MIC, broth dilution). In kind it is cell-based. The note with it: for MIC: Acinetobacter baumannii, Table 16, CLSI M07-A10 dilution method, read-out: MIC A. baumannii; for MIC AB: A. baumannii 2-2-2 (colistin-resistant clinical isolate), average of two replicates. On the procedure:
as §1, §2, §3

The test system of the next series is HeLa cells. Put plainly: Cytotoxicity testing (CC50, MTS assay). The note with it: HeLa cells. In general terms: Tetrazolium assays rely on reduction of a dye to a coloured formazan, in cell work by metabolically active cells.
The conditions of series [2]: mouse, in vivo, iv, 10 mg/kg.
Series [3] in a line: Pharmacokinetic study in mice (plasma concentration by LC/MS/MS). To be noted: single dose of 10 mg/kg by intravenous injection.
[4] abbreviates: text: E. faecium EF1509 (VRE), footnote: Enterococcus faecalis ATCC 1509.

In the case of `CN(C)c1ccc(/C=C/c2cc(-c3ccc(Cl)cc3)cc(-c3ccc(Cl)cc3)[o+]2)cc1` [(E)-2,4-bis(4-chlorophenyl)-6-(4-(dimethylamino)styryl)pyrylium boron tetrafluoride salt], the “Lipid II Binding” value in series [1] (immobilized 3-LII, compounds at 10 μM) is listed as “yes (scored “yes” in Table 5 when more than 20 Resonance Units or RUs were detected)”. Also, in the series on Staphylococcus aureus (anti-bacterial activity (MIC), strain not stated), the “S. aureus Killing” value worked out at 32.
For `CN1/C(=C/C=C/c2cc(-c3ccc(Cl)cc3)cc(-c3ccc(Cl)cc3)[o+]2)C(C)(C)c2ccccc21` [Compound 7jc42-1], the “Bacterial Killing S. aureus” value with Staphylococcus aureus is listed as 8. For the same compound, in the series with Enterococcus faecium, the “Bacterial Killing E. faecium” value is recorded as 32. In addition, the “Bacterial Killing E. coli” value in the series on Escherichia coli was greater than 64.
Take `CN1/C(=C/C=C/c2cc(-c3ccc(Br)cc3)cc(-c3ccc(Br)cc3)[o+]2)C(C)(C)c2ccccc21` [Compound 7jc42-2]: in the series with Staphylococcus aureus, the “Bacterial Killing S. aureus” value worked out at 32. Besides, in the series with Enterococcus faecium, the “Bacterial Killing E. faecium” value is given as 32. Also, in the series on Escherichia coli, the “Bacterial Killing E. coli” value is greater than 64.
For the compound `CN(C)c1ccc(/C=C/c2cc(-c3cccc(F)c3)cc(-c3cccc(F)c3)[o+]2)cc1` [Compound 7jc46-1], the “Bacterial Killing S. aureus” value with Staphylococcus aureus came to 1. Moreover, the “Bacterial Killing E. faecium” value in the series on Enterococcus faecium came to 2. For the same compound, in the series on Escherichia coli, the “Bacterial Killing E. coli” value is listed as greater than 64.
As to `CN(C)c1ccc(/C=C/C=C/c2cc(-c3ccc(F)cc3)cc(-c3ccc(F)cc3)[o+]2)cc1` [Compound 7jc47-2], the “Bacterial Killing S. aureus” value in the series on Staphylococcus aureus is listed as 1. Moreover, the “Bacterial Killing E. faecium” value in the series with Enterococcus faecium came out at 1. In addition, in the series on Escherichia coli, the “Bacterial Killing E. coli” value is listed as greater than 64.
In the case of `COc1cc(-c2cc(/C=C/c3ccc(N(C)CCO)cc3)[n+](C)c(-c3ccc(Br)cc3)c2)cc(OC)c1Br.[I-]` [Compound 9y3, (E)-4-(4-bromo-3,5-dimethoxyphenyl)-2-(4-bromophenyl)-6-(4-((2-hydroxy-ethyl)(methyl)amino)styryl)-1-methylpyridin-1-ium iodide], the figures for the MIC with Staphylococcus aureus, in the series with Enterococcus faecium and with Acinetobacter baumannii were 4 µg/mL, 8 µg/mL and 8 µg/mL, respectively.
With `COc1cc(-c2cc(/C=C/c3ccc(N(C)CCC#N)cc3)[n+](C)c(-c3ccc(Br)cc3)c2)cc(OC)c1Br.[I-]` [Compound 9y4, (E)-4-(4-bromo-3,5-dimethoxyphenyl)-2-(4-bromophenyl)-6-(4-((2-cyano-ethyl)(methyl)amino)styryl)-1-methylpyridin-1-ium iodide], the minimal inhibitory concentration (MIC) amounted to 4 µg/mL with Staphylococcus aureus, 8 µg/mL in the series on Enterococcus faecium and 8 µg/mL in the series with Acinetobacter baumannii.
Regarding `CN(C)c1ccc(/C=C/c2cc(-c3ccc(Br)cc3Cl)cc(-c3ccc(Br)cc3)[n+]2C)cc1.[I-]` [Compound 9z1, (E)-4-(4-bromo-2-chlorophenyl)-2-(4-bromophenyl)-6-(4-(dimethylamino)-styryl)-1-methylpyridin-1-ium iodide], the results for the minimum inhibitory concentration (MIC) with Staphylococcus aureus, in the series on Enterococcus faecium and in the series on Acinetobacter baumannii were 4 µg/mL, 8 µg/mL and 32 µg/mL, respectively.
For `CCN(CC)c1ccc(/C=C/c2cc(-c3ccc(Br)cc3Cl)cc(-c3ccc(Br)cc3)[n+]2C)cc1.[I-]` [Compound 9z2, (E)-4-(4-bromo-2-chlorophenyl)-2-(4-bromophenyl)-6-(4-(diethylamino)-styryl)-1-methylpyridin-1-ium iodide] the same measures were 0.5 µg/mL, 1 µg/mL and 2 µg/mL.
The matching figures for `CN(CCO)c1ccc(/C=C/c2cc(-c3ccc(Br)cc3Cl)cc(-c3ccc(Br)cc3)[n+]2C)cc1.[I-]` [Compound 9z3, (E)-4-(4-bromo-2-chlorophenyl)-2-(4-bromophenyl)-6-(4-((2-hydroxyethyl)-(methyl)amino)styryl)-1-methylpyridin-1-ium iodide]: 2 µg/mL, 4 µg/mL and 16 µg/mL.
The matching figures for `CN(CCC#N)c1ccc(/C=C/c2cc(-c3ccc(Br)cc3Cl)cc(-c3ccc(Br)cc3)[n+]2C)cc1.[I-]` [Compound 9z4, (E)-4-(4-bromo-2-chlorophenyl)-2-(4-bromophenyl)-6-(4-((2-cyanoethyl)-(methyl)amino)styryl)-1-methylpyridin-1-ium iodide]: 2 µg/mL, 4 µg/mL and 32 µg/mL.
`CN(C)c1ccc(/C=C/c2cc(-c3ccc(Br)cc3)cc(-c3ccc(Br)cc3)[n+]2C)cc1.[I-]` [EL-2]: the “MIC SA” value in the series with Staphylococcus aureus is 1 µg/mL. The “MIC EF” value against Enterococcus faecium (E. faecium EF1509 (VRE)) and in the series on Enterococcus faecium (setting [4]) was 1 µg/mL throughout. In the series with Acinetobacter baumannii, the “MIC AB” value is 8 µg/mL. In addition, the CC50 with HeLa cells (exposure 24 hour) and with HeLa cells (exposure 24 hours) was 5 µg/mL each time.
`CC(C)[n+]1c(/C=C/c2ccc(N(C)C)cc2)cc(-c2ccc(Br)cc2)cc1-c1ccc(Br)cc1.[I-]` [EL-3]: the “MIC SA” value with Staphylococcus aureus is 2 µg/mL. In addition, the “MIC EF” value in the series with Enterococcus faecium (E. faecium EF1509 (VRE)) was determined as 2 µg/mL. Also, in the series with Acinetobacter baumannii, the “MIC AB” value turned out to be 16 µg/mL. Besides, the half-maximal cytotoxic concentration (CC50) in the series with HeLa cells (exposure 24 hour) is 9 µg/mL.
`CN(C)c1ccc(/C=C/c2cc(-c3ccc(Br)cc3)cc(-c3ccc(Br)cc3)[n+]2C2CCCCC2)cc1.[I-]` [EL-5]: the “Lipid II binding affinity” value in series [1] is recorded as “below micromolar”. The “MIC SA” value with Staphylococcus aureus is 1 µg/mL. Besides, the “MIC EF” value against Enterococcus faecium (E. faecium EF1509 (VRE)) came to 0.25 µg/mL. Further, in the series on Acinetobacter baumannii, the “MIC AB” value came to 0.5 µg/mL. Further, in series [2], the AUCInf was 4125 ± 780 ng·h/mL, the “Cl—obs” value stood at 41.29 ± 7 mL/min/kg, the MRT is reported as 18.8 ± 1.62 h and the T1/2 is 23.8 ± 0.84 h. The compound further registered a CC50 in the series with HeLa cells (exposure 24 hour) of 4 µg/mL. In series [3], this compound showed an AUCextrap of 27.2 ± 1.6% and an AUClast/D of 300 ± 58 ng·h/mL.
Regarding `Cc1ccc(-c2cc(-c3ccc(Br)cc3)cc(/C=C/c3ccc(N(C)C)cc3)[n+]2C)cc1.[I-]` [EL-8], the “Lipid II binding affinity” value in series [1] is given as “below micromolar”. Also, in the series with Staphylococcus aureus, the “MIC SA” value was determined as 0.5 µg/mL. For the same compound, the “MIC EF” value against Enterococcus faecium (setting [4]) came to 4 µg/mL. The “MIC AB” value against Acinetobacter baumannii was 4 µg/mL. Further, in series [2], the AUCInf came out at 764 ± 187 ng·h/mL, the AUClast/D was 729 ± 179 mg·h/mL, the mean residence time MRT came to 1.74 ± 0.49 h and the T1/2 is on record as 9.4 ± 1.01 h. The compound further displayed a CC50 in the series on HeLa cells (exposure 24 hours) of 12 µg/mL. Further, in series [3], the AUCextrap came out at 4.63 ± 0.51% and the AUClast/D was found to be 72.9 ± 17.9 ng·h/mL.
